Assay results from patent US11053219B2, “Substituted pyridines as TYK2 inhibitors” (FronThera U.S. Pharmaceuticals LLC, priority 2018, dated 2021).
Like-named read-outs stand apart in the source and are kept apart here. Each block holds one compound with its values, some of them ahead of it.

Columns and labels:
TYK2 (JH2 domain) = TYK2 (JH2 domain) (Homo sapiens (Human), UniProt P29597); test: TYK2 JH2 domain binding assay (DiscoverX KINOMEscan); settings: 11-point 3-fold dilution, duplicate
[1] = test system: IL12-induced p-STAT4 in human PBMC; test: IL-12 induced pSTAT4 in human PBMC; type: cell-based; settings: read-out: p-STAT4 IC50
[2] = test system: INFα induced pSTAT3 in human PBMC; test: INFα induced pSTAT3 in human PBMC; type: cell-based; settings: read-out: p-STAT3 IC50
Description: (§1) Fresh Human PBMCs were resuspended in RPMI 1640 medium with 10% FBS. Cells were seeded in a round bottom 96-well plate at the concentration of 200,000 cells/well. A 10-point dilution series of test compound (top dose 10 uM, 1:5 dilution) was added to the well using the liquid dispenser (Tecan D300e) and incubated for 1 hour at 37 C. Then human INFα recombinant protein (R&D Systems) was added to the well at the final concentration of 5000 units/ml and incubated for 15 minutes at 37 C. Cell lysates were prepared and analyzed by Phospho STAT3 (Tyr705) cellular kit (Cisbio) or Phospho STAT5 (Tyr693) Kit (Meso Scale Discovery) following manufacturer's protocol.
(§2) For calculation of the inhibition rate, the relative pSTAT signal of each well=pSTAT signal of each well−the average pSTAT signal of baseline. The inhibition %=(the average pSTAT signal of INFα treatment wells−the relative of pSTAT signal in each compound containing well)/the average pSTAT signal of INFα treatment wells*100%
The curve was plotted as the inhibition % (y-axis) vs. compounds concentration (x-axis) and was fitted with log(inhibitor) vs. normalized response—Variable slope by GraphPad Prism7.0.

[3] = test system: IL-2-induced pSTAT5 in human PBMC; test: IL-2-induced pSTAT5 in human PBMC; type: cell-based; settings: IL-2 20 ng/ml
Description: as §1, with “IL-12” for “INFα”, “10 ng/ml” for “5000 units/ml”, “STAT4” for “STAT3 (Tyr705) cellular kit (Cisbio) or Phospho STAT5”
as §2, with “pSTAT4” for “pSTAT”, “well=pSTAT4” for “well=pSTAT”, “IL-12” for “INFα”
(§3) The curve was plotted as the inhibition % (y-axis) vs. compounds concentration (x-axis) and was fitted with log(inhibitor) vs. normalized response—Variable slope by GraphPad Prism7.0. Control is BMS-986165:
(§4) Similar to the method for IL-12 induced pSTAT4 in human PBMC described above, these assays were performed to check if test compounds have cross-activity to JAK1. JAK2 and JAK3 pathways in human PBMC. The procedure is as described with change of stimuli to 10 ng/ml of GM-CSF or 20 ng/ml of IL-2.

[4] = test system: INFα induced pSTAT5 in human PBMC; test: INFα induced pSTAT5 in human PBMC; type: cell-based; settings: human PBMC, INFα 5000 units/ml; read-out: p-STAT5 IC50
[5] = Pharmacokinetic study in Sprague Dawley rats; type: in vivo; settings: rat, plasma; for Vd: read-out: Vdss
Description: (§5) The pharmacokinetics of test compounds were evaluated in male C57BL/6 mice, Sprague Dawley rats, Beagle dogs, and cynomolgus monkeys when administered via oral gavage and IV injection. The animals were fasted overnight before administration. Plasma samples were collected predose and at 0.5, 1, 3, 6, 9, 12, and 24 hours postdose. The samples were analyzed by LC/MS/MS and the concentration of test compound at each timepoint was determined by linear regression. Pharmacokinetic parameters were calculated from the plasma concentrations using Pheonix WinNonlin.

[6] = Pharmacokinetic study in Beagle dogs; type: in vivo; settings: dog, plasma; for Vd: read-out: Vdss
Description: as §5

[7] = Pharmacokinetic study in cynomolgus monkeys; type: in vivo; settings: cynomolgus monkey, plasma
Description: as §5

[8] = Pharmacokinetic study in C57BL/6 mice; type: in vivo; settings: male, mouse, plasma
Description: as §5

[9] = test system: GM-CSF-induced pSTAT5 in human PBMC; test: GM-CSF-induced pSTAT5 in human PBMC; type: cell-based; settings: GM-CSF 10 ng/ml
Description: as §1, with “IL-12” for “INFα”, “10 ng/ml” for “5000 units/ml”, “STAT4” for “STAT3 (Tyr705) cellular kit (Cisbio) or Phospho STAT5”
as §2, with “pSTAT4” for “pSTAT”, “well=pSTAT4” for “well=pSTAT”, “IL-12” for “INFα”
as §3, §4

JAK1 (JH2 domain) = JAK1 (JH2 domain) (Homo sapiens (Human), UniProt P23458); test: JAK1 JH2 domain binding assay (KINOMEscan)
JAK2 (JH1 domain) = JAK2 (JH1 domain) (Homo sapiens (Human), UniProt O60674); test: JAK2 JH1 domain binding assay (KINOMEscan)
[10] = Oral (5 mg/kg), read-out: C0 or Cmax (Cmax)
[11] = iv, I.V. (1 mg/kg), read-out: C0 or Cmax (C0)
[12] = Oral (2 mg/kg), read-out: C0 or Cmax (Cmax)
[13] = Oral (2 mg/kg), NA: no detectable

Chain of TYK2 (JH2 domain) (P29597 589-875): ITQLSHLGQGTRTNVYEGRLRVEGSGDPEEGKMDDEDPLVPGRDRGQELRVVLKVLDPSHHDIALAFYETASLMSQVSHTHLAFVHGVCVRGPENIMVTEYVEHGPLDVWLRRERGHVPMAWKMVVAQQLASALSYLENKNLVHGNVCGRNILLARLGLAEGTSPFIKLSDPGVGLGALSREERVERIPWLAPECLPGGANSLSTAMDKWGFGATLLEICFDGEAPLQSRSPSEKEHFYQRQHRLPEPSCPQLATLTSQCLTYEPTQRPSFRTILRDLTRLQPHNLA
Chain of JAK1 (JH2 domain) (P23458 583-855): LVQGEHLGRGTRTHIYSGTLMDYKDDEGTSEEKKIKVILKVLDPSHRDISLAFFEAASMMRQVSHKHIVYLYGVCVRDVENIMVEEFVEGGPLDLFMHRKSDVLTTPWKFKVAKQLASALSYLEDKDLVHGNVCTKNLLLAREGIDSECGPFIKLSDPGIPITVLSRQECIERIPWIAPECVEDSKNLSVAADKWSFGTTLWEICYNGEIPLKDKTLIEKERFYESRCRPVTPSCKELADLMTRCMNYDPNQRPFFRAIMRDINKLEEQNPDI
Chain of JAK2 (JH1 domain) (O60674 849-1124): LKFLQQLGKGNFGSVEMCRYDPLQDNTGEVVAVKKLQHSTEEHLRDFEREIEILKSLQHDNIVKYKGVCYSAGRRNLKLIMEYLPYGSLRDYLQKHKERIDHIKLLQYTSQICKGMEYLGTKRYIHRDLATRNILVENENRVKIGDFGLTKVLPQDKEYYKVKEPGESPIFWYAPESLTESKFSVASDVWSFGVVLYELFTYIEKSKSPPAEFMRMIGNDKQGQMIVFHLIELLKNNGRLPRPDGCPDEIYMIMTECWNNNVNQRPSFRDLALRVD

Compound: [2H]C([2H])([2H])NC(=O)c1nnc(N2CCN(CC)C2=O)cc1Nc1cccc(-c2ncn(C)n2)c1OC [Example 12, 6-(3-ethyl-2-oxo-imidazolidin-1-yl)-4-[2-methoxy-3-(1-methyl-1,2,4-triazol-3-yl)anilino]-N-(trideuteriomethyl)pyridazine-3-carboxamide]
Kd (TYK2 (JH2 domain)): ≤ 1 nM
IC50 ([1]; Homo sapiens, PBMC): < 100 nM
IC50 ([2]; Homo sapiens, PBMC): < 100 nM

Kd (TYK2 (JH2 domain)): ≤ 1 nM
Compound: [2H]C([2H])([2H])NC(=O)c1nnc(N2CCN(CC(F)(F)F)C2=O)cc1Nc1cccc(-c2ncn(C)n2)c1OC [Example 67]
IC50 ([1]; human PBMC, IL-12 10 ng/ml): < 100 nM
IC50 ([2]; human PBMC, INFα 5000 units/ml): 100 to 1000 nM

Kd (TYK2 (JH2 domain)): 5 to 10 nM
Compound: [2H]C([2H])([2H])NC(=O)c1nnc(N2CC(C)(C)C2)cc1Nc1cccc(-c2ncn(C)n2)c1OC [Example 62]
IC50 ([1]; human PBMC, IL-12 10 ng/ml): 1000 to 10000 nM
IC50 ([2]; human PBMC, INFα 5000 units/ml): 1000 to 10000 nM

Compound: [2H]C([2H])([2H])CC(=O)c1cnc(NC(=O)C2CC2)cc1Nc1cccc(-c2ncn(C([2H])([2H])[2H])n2)c1OC [Example 195]
IC50 [3]: 1000 to 10000 nM
IC50 [4]: < 100 nM
AUC ([5]; Oral (5 mg/kg)): 7440 ± 1400 ng·h/mL
Tmax ([5]; Oral (5 mg/kg)): 1.67 ± 0.58 h
bioavailability ([5]; Oral (5 mg/kg)): 46.7 ± 8.8%
half-life ([5]; Oral (5 mg/kg)): 2.37 ± 0.32 h
Cmax [5, 10]: 1260 ± 226 ng/mL
AUC ([5]; iv, I.V. (1 mg/kg)): 3190 ± 603 ng·h/mL
clearance ([5]; iv, I.V. (1 mg/kg)): 4.96 ± 0.91 mL/min/kg
half-life ([5]; iv, I.V. (1 mg/kg)): 2.14 ± 0.12 h
Cmax [5, 11]: 2150 ± 123 ng/mL
Vd ([5]; iv, I.V. (1 mg/kg)): 0.824 ± 0.11 L/kg
AUC ([6]; Oral (2 mg/kg)): 1520 ± 1330 ng·h/mL
Tmax ([6]; Oral (2 mg/kg)): 1.33 ± 0.58 h
bioavailability ([6]; Oral (2 mg/kg)): 26.2 ± 23%
half-life ([6]; Oral (2 mg/kg)): 5.73 ± 2.02 h
Cmax [6, 12]: 285 ± 285 ng/mL
AUC ([6]; iv, I.V. (1 mg/kg)): 2900 ± 453 ng·h/mL
clearance ([6]; iv, I.V. (1 mg/kg)): 5.31 ± 0.93 mL/min/kg
half-life ([6]; iv, I.V. (1 mg/kg)): 6.69 ± 0.39 h
Cmax [6, 11]: 185 ± 8.4 ng/mL
Vd ([6]; iv, I.V. (1 mg/kg)): 3.04 ± 0.27 L/kg
AUC [7, 13]: 5420 ± 3250 ng·h/mL
Tmax [7, 13]: 4 h
bioavailability [7, 13]: 16.6 ± 9.95%
half-life [7, 13]: 5.8 ± 0.73 h
Cmax ([7]; Oral (2 mg/kg), NA: no detectable, read-out: C0 or Cmax (Cmax)): 663 ± 497 ng/mL
AUC ([7]; iv, I.V. (1 mg/kg)): 16300 ± 664 ng·h/mL
clearance ([7]; iv, I.V. (1 mg/kg)): 0.898 ± 0.04 mL/min/kg
half-life ([7]; iv, I.V. (1 mg/kg)): 7.65 ± 0.56 h
Cmax [7, 11]: 1290 ± 106 ng/mL
Vd ([7]; iv, I.V. (1 mg/kg), read-out: Vdss): 0.624 ± 0.03 L/kg
Tmax ([8]; Oral (10 mg/kg)): 0.5 h
bioavailability ([8]; Oral (10 mg/kg)): 41.7%
half-life ([8]; Oral (10 mg/kg)): 2.11 h
Cmax ([8]; Oral (10 mg/kg), read-out: C0 or Cmax (Cmax)): 4300 ng/mL
clearance ([8]; iv, I.V. (2 mg/kg)): 4.16 mL/min/kg
half-life ([8]; iv, I.V. (2 mg/kg)): 2.46 h
Cmax ([8]; iv, I.V. (2 mg/kg), read-out: C0 or Cmax (C0)): 2950 ng/mL
Vd ([8]; iv, I.V. (2 mg/kg), read-out: Vdss): 0.688 L/kg
IC50 [9]: 1000 to 10000 nM

Compound: CCC(=O)c1cnc(NC(=O)C2CC2)cc1Nc1nccc(-c2ncn(C)n2)c1OC [Example 163]
Kd (TYK2 (JH2 domain)): ≤ 1 nM
IC50 [4]: < 100 nM
Kd (JAK1 (JH2 domain)): < 100 nM
Kd (JAK2 (JH1 domain)): 100 to 1000 nM

Kd (TYK2 (JH2 domain)): ≤ 1 nM
Kd (JAK1 (JH2 domain); KINOMEscan, read-out: JAK1 (JH2 domain) binding Kd): < 100 nM
Kd (JAK2 (JH1 domain)): > 10000 nM
AUC ([5]; Oral (5 mg/kg)): 650 ± 34 ng·h/mL
Tmax ([5]; Oral (5 mg/kg)): 1.33 ± 0.58 h
bioavailability ([5]; Oral (5 mg/kg)): 18.4 ± 1%
half-life ([5]; Oral (5 mg/kg)): 1.66 ± 0.37 h
Cmax [5, 10]: 140 ± 32 ng/mL
AUC ([5]; iv, I.V. (1 mg/kg)): 705 ± 140 ng·h/mL
clearance ([5]; iv, I.V. (1 mg/kg)): 23.3 ± 4.9 mL/min/kg
half-life ([5]; iv, I.V. (1 mg/kg)): 1.74 ± 0.2 h
Cmax [5, 11]: 414 ± 56 ng/mL
Vd ([5]; iv, I.V. (1 mg/kg)): 3.27 ± 0.87 L/kg
AUC ([6]; Oral (2 mg/kg)): 67.6 ± 25 ng·h/mL
Tmax ([6]; Oral (2 mg/kg)): 1.33 ± 0.6 h
bioavailability ([6]; Oral (2 mg/kg)): 10.7 ± 3.9%
half-life ([6]; Oral (2 mg/kg)): 1.36 ± 0.05 h
Cmax [6, 12]: 23.4 ± 4 ng/mL
AUC ([6]; iv, I.V. (1 mg/kg)): 315 ± 188 ng·h/mL
clearance ([6]; iv, I.V. (1 mg/kg)): 63.2 ± 30 mL/min/kg
half-life ([6]; iv, I.V. (1 mg/kg)): 1.78 ± 0.59 h
Cmax [6, 11]: 334 ± 96 ng/mL
Vd ([6]; iv, I.V. (1 mg/kg)): 5.62 ± 1.13 L/kg
Compound: [2H]C([2H])([2H])CC(=O)c1cnc(Nc2cccc(C#N)n2)cc1Nc1nccc(-c2ncn(C([2H])([2H])[2H])n2)c1OC [Example 199]
IC50 [3]: 100 to 1000 nM
IC50 [4]: < 100 nM
IC50 [9]: 1000 to 10000 nM

Kd (TYK2 (JH2 domain)): ≤ 1 nM
Compound: [2H]C([2H])([2H])NC(=O)c1nnc(N2CCN(CC3(C)COC3)C2=O)cc1Nc1cccc(-c2ncn(C)n2)c1OC [Example 72]
IC50 ([1]; human PBMC, IL-12 10 ng/ml): < 100 nM
IC50 ([2]; human PBMC, INFα 5000 units/ml): 100 to 1000 nM
